Patent publication US20260234165A1, “MACROCYCLIC COMPOUNDS, PREPARATION METHOD THEREFOR, AND USE THEREOF” (GENFLEET THERAPEUTICS (SHANGHAI) INC., priority 2004, published 2026)
Read-outs that look alike come from different tables or passages of the source.

Columns and labels:
Assay type in all cases: cell-based, human
[1] = test system: AsPC-1 cells (KRAS G12D mutation); assay: 3D cell proliferation assay (CellTiter Glo-3D), AsPC-1; settings: medium with 2% FBS, read-out: AsPC-1 AP IC50
In short: (§1)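 Five-day treatment of NCI-H441 or AsPC-1 cells (800/well, 2% FBS RPMI-1640, 0.1% DMSO) with graded compound concentrations; ATP content by CellTiter-Glo 3D; IC50 fitted.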

[2] = test system: NCI-H441 cells; assay: 3D cell proliferation assay (CellTiter Glo-3D), NCI-H441; settings: medium with 2% FBS, read-out: H441 AP IC50
In short: as §1

[3] = test system: p-ERK in AsPC-1 cells (KRAS G12D mutation); assay: Cell p-ERK assay (HTRF) in AsPC-1 cells; settings: AsPC-1 cells, 3 h compound incubation, HTRF p-ERK T202/Y204, read-out: AsPC-1 p-ERK IC50
In short: (§2)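 IC50 values derive from four-parameter fitting of p-ERK (T202/Y204) HTRF inhibition, normalized to DMSO and blank controls. The lysates came from cells exposed for 3 h to serial 3.16-fold compound dilutions at 0.1% DMSO, after overnight plating at 10000 AsPC-1 or 20000 NCI-H441 cells per well.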

[4] = test system: p-ERK in NCI-H441 cells (KRAS G12V mutation); assay: Cell p-ERK assay (HTRF) in NCI-H441 cells; settings: NCI-H441 cells, 3 h compound incubation, HTRF p-ERK T202/Y204, read-out: H441 p-ERK IC50
In short: as §2

[5] = Homo sapiens, ASPC1, 3D cell proliferation (CellTiter Glo-3D)
[6] = Homo sapiens, NCI-H441, 3D cell proliferation (CellTiter Glo-3D)
[7] = 3D cell proliferation (CellTiter Glo-3D)

| SMILES | IC50 [1, 5] [pM] | IC50 [2, 6] [pM] | IC50 ([3]; Homo sapiens, ASPC1, 3 h) [pM] | IC50 ([4]; Homo sapiens, NCI-H441, 3 h) [pM] | IC50 [1, 7] [pM] | IC50 [2, 7] [pM] | IC50 [3] [pM] | IC50 [4] [pM] |
| --- | --- | --- | --- | --- | --- | --- | --- | --- |
| CCc1ccn2c(N[C@H]3Cc4nc(cs4)-c4ccc5c(c4)c(c(-c4cc(N6CCN(C)CC6)cnc4[C@H](C)OC)n5CC)CC(C)(C)COC(=O)[C@@H]4CCCN(N4)C3=O)nnc2c1 (atropisomer, axis not shown; (Ra)) [Compound Z662, (6^3S,4S,Z)-1^1-ethyl-4-((7-ethyl-[1,2,4]triazolo[4,3-a]pyridin-3-yl)amino)-(Ra)-1^2-(2-((S)-1-methoxyethyl)-5-(4-methylpiperazin-yl)pyridin-3-yl)-10,10-dimethyl-6^1,6^2,6^3,6^4,6^5,6^6-hexahydro-1^1H-8-oxa-2(4,2)-thiazola-1(5,3)-indola-6(1,3)-pyridazinacycloundecaphane-5,7-dione] | 67000 | 11000 | 34400 | 5400 | – | – | – | – |
| CCn1c(-c2cc(OCCN3CCS(=O)(=O)C(C)(C)C3)cnc2[C@H](C)OC)c2c3cc(ccc31)-c1csc(n1)C[C@H](NC(=O)[C@H]1C[C@@H]1C)C(=O)N1CCC[C@H](N1)C(=O)OCC(C)(C)C2 (atropisomer, axis not shown; (Ra)) [Compound Z665] | – | – | – | – | 780 | 210 | 320 | 110 |
| CCn1c(-c2cc(OCC(C)(C)N3CCS(=O)(=O)CC3)cnc2[C@H](C)OC)c2c3cc(ccc31)-c1csc(n1)C[C@H](NC(=O)[C@H]1[C@H](C)[C@@H]1C)C(=O)N1CCC[C@H](N1)C(=O)OCC(C)(C)C2 (atropisomer, axis not shown; (Ra)) [Compound Z667, (1r,2R,3S)—N-((6^1S,4S,Z)—(Ra)-1^2-(5-(2-(1,1-dioxidothiomorpholino)-2-methylpropoxy)-2-((S)-1-methoxyethyl)pyridin-3-yl)-1^1-ethyl-10,10-dimethyl-5,7-dioxo-6^1,6^2,6^3,6^4,6^5,6^6-hexahydro-1^1H-8-oxa-2(4,2)-thiazola-1(5,3)-indola-6(1,3)-pyridazinacycloundecaphane-4-yl)-2,3-dimethylcyclopropane-1-carboxamide] | – | – | – | – | 1630 | 710 | 630 | 380 |
| CCn1c(-c2cc(C#C[C@H]3COCCN3C)cnc2[C@H](C)OC)c2c3cc(ccc31)-c1csc(n1)C[C@H](NC(=O)[C@H]1[C@H](C)[C@@H]1C)C(=O)N1CCC[C@H](N1)C(=O)OCC(C)(C)C2 (atropisomer, axis not shown; (Ra)) [Compound Z673, (1r,2R,3S)—N-((6^3S,4S,Z)-1^1-ethyl-(Ra)-1^2-(2-((S)-1-methoxyethyl)-5-(((S)-4-methylmorpholin-3-yl)ethynyl)pyridin-3-yl)-10,10-dimethyl-5,7-dioxo-6^1,6^2,6^3,6^4,6^5,6^6hexahydro-1^1H-8-oxa-2(4,2)-thiazola-1(5,3)-indola-6(1,3)-pyridazinacycloundecaphane-4-yl)-2,3-dimethylcyclopropane-1-carboxamide] | 520 | 230 | 270 | 330 | – | – | – | – |
| CO[C@@H](C)c1ncc(OCCN2CCS(=O)(=O)CC2)cc1-c1c2c3cc(ccc3n1CC(F)(F)F)-c1csc(n1)C[C@H](NC(=O)[C@H]1C[C@@H]1C)C(=O)N1CCC[C@H](N1)C(=O)OCC(C)(C)C2 (atropisomer, axis not shown; (Ra)) [Compound Z677, (1S,2S)—N-((6^3S,4S,Z)—(Ra)-1^2-(5-(2-(1,1-dioxidothiomorpholino)ethoxy)-2-((S)-1-methoxyethyl)pyridin-3-yl)-10,10-dimethyl-5,7-dioxo-1^1-(2,2,2-trifluoroethyl)-6^1,6^2,6^3,6^4,6^5,6^6-hexahydro-1^1H-8-oxa-2(4,2)-thiazola-1(5,3)-indola-6(1,3)-pyridazinacycloundecaphane-4-yl)-2-methylcyclopropane-1-carboxamide] | 530 | 200 | 350 | 290 | – | – | – | – |
| CO[C@@H](C)c1ncc(OCCN2CCS(=O)(=O)CC2)cc1-c1c2c3cc(ccc3n1C(C)C)-c1csc(n1)C[C@H](NC(=O)[C@H]1[C@H](C)[C@@H]1C)C(=O)N1CCC[C@H](N1)C(=O)OCC(C)(C)C2 (atropisomer, axis not shown; (Ra)) [Compound Z678, (1r,2R,3S)—N-((6^3S,4S,Z)—(Ra)-1^2-(5-(2-(1,1-dioxidothiomorpholino)ethoxy)-2-((S)-1-methoxyethyl)pyridin-3-yl)-1^1-isopropyl-10,10-dimethyl-5,7-dioxo-6^1,6^2,6^3,6^4,6^5,6^6-hexahydro-1^1H-8-oxa-2(4,2)-thiazola-1(5,3)-indola-6(1,3)-pyridazinacycloundecaphane-4-yl)-2,3-dimethylcyclopropane-1-carboxamide] | – | – | – | – | 170 | 60 | 60 | 170 |
| CCn1c(-c2cc(C#CCN3CCN(C)CC3)cnc2[C@H](C)OC)c2c3cc(ccc31)-c1csc(n1)C[C@H](NC(=O)[C@H]1[C@H](C)[C@@H]1C)C(=O)N1CCC[C@H](N1)C(=O)OCC(C)(C)C2 (atropisomer, axis not shown; (Ra)) [Compound Z703] | 680 | 300 | 360 | 170 | – | – | – | – |
| CCn1c(-c2cc(N3CCN(C)CC3)cnc2[C@H](C)OC)c2c3cc(ccc31)-c1csc(n1)C[C@H](Nc1nnc3cc(OC)ccn13)C(=O)N1CCC[C@H](N1)C(=O)OCC(C)(C)C2 (atropisomer, axis not shown; (Ra)) [Compound Z777, N-((6^3S,4S,Z)-1^1-ethyl-(Ra)-1^2(2-((S)-1-methoxyethyl)-5-(4-methylpiperazin-1-yl)pyridin-3-yl)-10,10-dimethyl-5,7-dioxo-6^1,6^2,6^3,6^4,6^5,6^6-hexahydro-1^1H-8-oxa-2(4,2)-thiazola-1(5,3)-indola-6(1,3)-pyridazinacycloundecaphane-4-yl)-4-(7-methoxy-[1,2,4]triazolo[4,3-a]pyridin-3-yl)amine] | – | – | – | – | 87900 | 18200 | 61900 | 22200 |
| CCn1c(-c2cc(OC[C@@H]3CCCN3Cc3ccn(C)n3)cnc2[C@H](C)OC)c2c3cc(ccc31)-c1csc(n1)C[C@H](NC(=O)[C@H]1[C@H](C)[C@@H]1C)C(=O)N1CCC[C@H](N1)C(=O)OCC(C)(C)C2 (atropisomer, axis not shown; (Ra)) [Compound Z784-1, (1r,2R,3S)—N-((6^3S,4S,Z)—(Ra)-1^2-5-(((S)-1-((1-methyl-1H-pyrazol-3-yl)methyl)pyrrolidin-2-yl)methoxy)-(2-((S)-1-methoxyethyl)-pyridin-3-yl)-10,10-dimethyl-5,7-dioxo-6^1,6^2,6^3,6^4,6^5,6^6-hexahydro-1^1H-8-oxa-2(4,2)-thiazola-1(5,3)-indola-6(1.3)-pyridazinacycloundecaphane-4-yl)-2,3-dimethylcyclopropane-1-carboxamide] | 1370 | 930 | 890 | 900 | – | – | – | – |
| CCn1c(-c2cc(OC[C@H]3CCCN3Cc3ccn(C)n3)cnc2[C@H](C)OC)c2c3cc(ccc31)-c1csc(n1)C[C@H](NC(=O)[C@H]1[C@H](C)[C@@H]1C)C(=O)N1CCC[C@H](N1)C(=O)OCC(C)(C)C2 (atropisomer, axis not shown; (Ra)) [Compound Z784-2, (1r,2R,3S)—N-((6^3S,4S,Z)—(Ra)-1^2-5-(((R)-1-((1-methyl-1H-pyrazol-3-yl)methyl)pyrrolidin-2-yl)methoxy)-(2-((S)-1-methoxyethyl)-pyridin-3-yl)-10,10-dimethyl-5,7-dioxo-6^1,6^2,6^3,6^4,6^5,6^6-hexahydro-1^1H-8-oxa-2(4,2)-thiazola-1(5,3)-indola-6(1.3)-pyridazinacycloundecaphane-4-yl)-2,3-dimethylcyclopropane-1-carboxamide] | 830 | 530 | 660 | 800 | – | – | – | – |
| CCn1c(-c2cc(OCCN3CCN(C)S(=O)(=O)CC3)cnc2[C@H](C)OC)c2c3cc(ccc31)-c1csc(n1)C[C@H](NC(=O)[C@H]1[C@H](C)[C@@H]1C)C(=O)N1CCC[C@H](N1)C(=O)OCC(C)(C)C2 (atropisomer, axis not shown; (Ra)) [Compound Z796] | 1100 | 280 | 420 | 550 | – | – | – | – |
| CCn1c(-c2cc(C#CC(=O)N3CCCOCC3)cnc2[C@H](C)OC)c2c3cc(ccc31)-c1csc(n1)C[C@H](NC(=O)[C@H]1[C@H](C)[C@@H]1C)C(=O)N1CCC[C@H](N1)C(=O)OCC(C)(C)C2 (atropisomer, axis not shown; (Ra)) [Compound Z810, (1r,2R,3S)—N-((6^3S,4S,Z)-1^1-ethyl-(Ra)-1-(5-(3-(1,4-oxazepan-4-yl)-3-oxoprop-1-yn-1-yl)-2-((S)-1-methoxyethyl)pyridin-3-yl)-10,10-methyl-5,7-dioxo-6^1,6^2,6^3,6^4,6^5,6^6hexahydro-1^1H-8-oxa-2(4,2)-thiazola-1(5,3)-indola-6(1,3)-pyridazinacycloundecaphane-4-yl)-2,3-dimethylcyclopropane-1-carboxamide] | 3220 | 1830 | – | – | – | – | 1350 | 1650 |
